Tests used:
Mus musculus [1] = experiment: Neuroprotective activity in transgenic mouse amyotrophic lateral sclerosis model harboring SOD1 G93A mutant assessed as increase in survival rate at 60 mg/kg, administered via oral gavage started from first day of symptomatic onset until disease end stage relative to control; format: functional
Mus musculus [2] = experiment: (§1) Neuroprotective activity in transgenic mouse amyotrophic lateral sclerosis model harboring SOD1 G93A mutant assessed as death of motor neurons in lumbar spinal cord at 10 mg/kg, po measured at 7 days post disease onset by immunostaining method (reference value: 58%); format: functional
Mus musculus [3] = experiment: Neuroprotective activity in transgenic mouse amyotrophic lateral sclerosis model harboring human SOD1 H46R mutant assessed as prolongation of survival at 1 to 100 ug/kg, administered through gastric tube daily started between day 121 to 130 of disease onset until disease end stage relative to control; format: functional, Stomach
Mus musculus [4] = experiment: Neuroprotective activity in transgenic mouse amyotrophic lateral sclerosis model harboring SOD1 […] mutant assessed as prolongation of survival at 10 ug/kg, administered through gastric tube daily started between day 88 to 106 of disease onset until disease end stage relative to control; format: functional
Mus musculus [5] = experiment: as §1, with “4” for “10”, “ip administered every other day started from postnatal day 40 until” for “po measured at 7 days post”, “end stage” for “onset”, “71%)” for “58%)”; format: functional
Mus musculus [6] = experiment: (§2) Neuroprotective activity in transgenic mouse amyotrophic lateral sclerosis model harboring human SOD1 H46R mutant assessed as increase in survival rate at 0.5 mg/kg, ig administered daily starting at day of disease onset until disease end stage relative to control; format: functional
Mus musculus [7] = experiment: Neuroprotective activity in transgenic mouse amyotrophic lateral sclerosis model harboring human SOD1 H46R mutant assessed as increase in survival rate at 0.1 mg/kg, ig administered daily starting at day of disease onset until disease end stage relative to control; format: functional
Mus musculus [8] = experiment: as §2, with “ChAT-positive motor neurons loss” for “increase”, “anterior horn” for “survival rate”, “by immunostaining method (reference value: 43%)” for “relative to control”; format: functional
Mus musculus [9] = experiment: (§3) Neuroprotective activity in transgenic C57/BL6 mouse amyotrophic lateral sclerosis model harboring SOD1 G93A mutant assessed as decrease in misfolded SOD1 levels in spinal cord at 4 mg/kg, ip administered twice weekly started from postnatal day 40 until disease end stage by immunoprecipitation method relative to control; format: functional; set-up: scale not given: the % may be the effect or the level left
[10] = as §3, with “upregulation of HSP25” for “decrease in misfolded SOD1”, “Western blot” for “immunoprecipitation”; format: functional, organism-based
[11] = as §3, with “upregulation of HSP70” for “decrease in misfolded SOD1”, “Western blot” for “immunoprecipitation”; format: functional, organism-based

Question: For `CCCCC1OC(=O)c2ccccc21` (racemic) [RAC-3-N-BUTYLPHTHALIDE], which Activity (Mus musculus [1]) is on record?
Answer: The Activity was 42%.

Question: With `O=C(/C=C/c1ccc(O)c(O)c1)OCCc1ccccc1` [CAFFEIC ACID PHENETHYL ESTER] as the compound, how does the Activity (Mus musculus [2]) read?
Answer: The Activity was 10%.

Question: Which Activity (Mus musculus [3]) does the source give for `Cc1cc(C)c(N(C)CC(=O)Nc2nc(-c3ccccn3)c[nH]2)c(C)c1.Cl.Cl.Cl` here?
Answer: The Activity was 20%.

Question: And the Activity (Mus musculus [4])?
Answer: Its Activity is 14%.

Question: With `N=C(N)N/N=C/c1c(Cl)cccc1Cl` [GUANABENZ] as the compound, how does the Activity (Mus musculus [5]) read?
Answer: Its Activity is 44%.

Question: With `Cc1cc(C)c(OCC(=O)Nc2nc(-c3ccccn3)cs2)c(C)c1` as the compound, how does the Activity (Mus musculus [6]) read?
Answer: The Activity was 16%.

Question: And the Activity (Mus musculus [7])?
Answer: The Activity was 11%.

Question: And the Activity (Mus musculus [8])?
Answer: Its Activity is 23%.

Question: With `CC1=C(CO)C(=O)O[C@@H]([C@@H](C)[C@H]2CC[C@H]3[C@@H]4C[C@H]5O[C@]56[C@@H](O)C=CC(=O)[C@]6(C)[C@H]4CC[C@]23C)C1` [WITHAFERIN A] as the compound, how does the Activity (Mus musculus [9]) read?
Answer: Its Activity is 39%.

Question: And the fold change (FC) [10]?
Answer: The fold change (FC) was 2.6.

Question: And the fold change (FC) [11]?
Answer: Its fold change (FC) is 2.2.

— ChEMBL document CHEMBL3853271, “Recent progress towards an effective treatment of amyotrophic lateral sclerosis using the SOD1 mouse model in a preclinical setting” (2016)
